Key:
Type in all cases: in vivo
Settings in all cases: 250 g/ha, evaluated after 13 days, five-point scale
[1] = test system: Amaranthus palmeri (AMAPA); assay: Pre-emergence herbicide glasshouse test
How it was run: (§1)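 Damage was rated 13 days after treatment on a five-point scale, 5 = 81–100% and 1 = 0–20%. Plants in soil pots were sprayed with compound in acetone/water (50:50) containing 0.5% Tween 20, at 250 g/ha unless otherwise stated. Pre-emergence treatment followed one day of cultivation; post-emergence treatment followed eight.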

[2] = test system: Echinochloa crus-galli (ECHCG); assay: Pre-emergence herbicide glasshouse test
How it was run: as §1

[3] = test system: Amaranthus retoflexus (AMARE); assay: Pre-emergence herbicide glasshouse test
How it was run: as §1

Setaria faberi (SETFA) [4] = assay: Pre-emergence herbicide glasshouse test
How it was run: as §1

[5] = test system: Ipomoea hederacea (IPOHE); assay: Pre-emergence herbicide glasshouse test
How it was run: as §1

[6] = test system: Amaranthus palmeri (AMAPA); assay: Post-emergence herbicide glasshouse test
How it was run: as §1

[7] = test system: Echinochloa crus-galli (ECHCG); assay: Post-emergence herbicide glasshouse test
How it was run: as §1

[8] = test system: Amaranthus retoflexus (AMARE); assay: Post-emergence herbicide glasshouse test
How it was run: as §1

Setaria faberi (SETFA) [9] = assay: Post-emergence herbicide glasshouse test
How it was run: as §1

[10] = test system: Ipomoea hederacea (IPOHE); assay: Post-emergence herbicide glasshouse test
How it was run: as §1

CC(=NOCC1CC1)c1nc(C(F)(F)F)nc2cccc(Oc3ncc(Cl)cn3)c12 [Compound 1.003]
percentage damage caused to the plant, AMAPA [1]: 1 (1=0-20%) | percentage damage caused to the plant, ECHCG [2]: 1 (1=0-20%) | percentage damage caused to the plant, AMARE [3]: 1 (1=0-20%) | percentage damage caused to the plant, SETFA (Setaria faberi (SETFA) [4]): 1 (1=0-20%) | percentage damage caused to the plant, IPOHE [5]: 1 (1=0-20%) | percentage damage caused to the plant, AMAPA [6]: 1 (1=0-20%) | percentage damage caused to the plant, ECHCG [7]: 1 (1=0-20%) | percentage damage caused to the plant, AMARE [8]: 1 (1=0-20%) | percentage damage caused to the plant, SETFA (Setaria faberi (SETFA) [9]): 1 (1=0-20%) | percentage damage caused to the plant, IPOHE [10]: 1 (1=0-20%)

FC(F)(F)c1nc(CCC=NOCC2CC2)c2c(Oc3ncc(Cl)cn3)cccc2n1 [Compound 1.068]
percentage damage caused to the plant, AMAPA [1]: 5 (5=81-100%) | percentage damage caused to the plant, ECHCG [2]: 3 (3=41-60%) | percentage damage caused to the plant, AMARE [3]: 4 (4=61-80%) | percentage damage caused to the plant, SETFA (Setaria faberi (SETFA) [4]): 5 (5=81-100%) | percentage damage caused to the plant, IPOHE [5]: 1 (1=0-20%) | percentage damage caused to the plant, AMAPA [6]: 5 (5=81-100%) | percentage damage caused to the plant, ECHCG [7]: 5 (5=81-100%) | percentage damage caused to the plant, AMARE [8]: 5 (5=81-100%) | percentage damage caused to the plant, SETFA (Setaria faberi (SETFA) [9]): 5 (5=81-100%) | percentage damage caused to the plant, IPOHE [10]: 1 (1=0-20%)

— patent publication US20250179051A1, “PYRIMIDINLY-OXY-QUINOLINE BASED HERBICIDAL COMPOUNDS” (SYNGENTA CROP PROTECTION AG, priority 2022, published 2025)
